According to patent US8470763B2, “Alpha-amino-N-substituted amides, pharmaceutical composition containing them and uses thereof” (Shanghai Institute of Materia Medica Chinese Academy of …, priority 2007, dated 2013):
Like-named read-outs stand apart in the source and are kept apart here.

How the values were obtained:
[1] = test system: lung adenocarcinoma cells A549; assay: MTT assay, A549 cells; format: cell-based; conditions: Homo sapiens, 72 h
Description: (§1) The adhered MDA-MB-4355 cells in logarithmic growth phase, were digested by 0.05% trypsogen, counted and formulated into a cell suspension with a medium. After counted, the suspension was inoculated on a 96-well plate with 3000 cells and 100 μl medium per well. The inoculated 96-well plate was placed overnight in an incubator at 37 with 5% CO2 to allow the cells to adhere to the wall. On the next day, the administration of the drugs started. Before the administration, into some of the control wells, each was added 20 μl of the MTT solution (5 mg/ml) without removing the medium therein. After incubated for 3 h, the absorption at A550/690 was recorded as the initial cell concentration. For the drug wells, each was added into 100 μl of medium containing 2 μl of compound solution. For the control wells which use DMSO as background control, each was also added into 100 μl of medium containing 2 μl of DMSO. In addition, each experiment was carried out with adriamycin as the positive control. Subsequently, the 96-well plate was incubated in an incubator at 37 with 5% CO2 for 72 h. each compound was tested in triplicate wells (6 μl of compound solution was put into a sterilized eppendorf centrifuge tube, then 300 μl of medium was added and mixed well, and the mixture was distributed into 3 wells respectively), and at six concentrations which form a gradient. 3 days (72 h) later, 40 μl of MTT solution (5 mg/ml) was put into each well directly (without sucking off the medium therein), and the plate was incubated in the incubator for 3 h and then taken out. The liquid in each well was sucked off, and then 100 μl of DMSO was put into each well to dissolve the crystal completely with slight shake. The absorbance of the solution in each well was determined at 550/690 nm on an ELISA Reader as the cell density after treated with the compound. The growth inhibition of compound against breast cancer cells MDA-MB-435S was represented by the cell survival rate, and IC50 was determined from the profile of cell survival rate vs compound concentration. The calculating formula was as follows: cell survival rate=[(cells+compound)A550/690/(cells+compound vector DMSO)A550/690]×100%
(§2) MDA-MB-435S: human breast cancer cells; HCT116: colon cancer cells; A549: lung adenocarcinoma cells; Hela: uterine cervix cancer cells.
(§3) The tests were performed in the same manner as that of experimental example 1, except that for Hela cells, after counted, each well was seeded with 1000 cells and 100 μl of medium on a 96-well plate.

[2] = test system: colon cancer cells HCT116; assay: MTT assay, HCT116 cells; format: cell-based; conditions: Homo sapiens, HCT-116, 72 h
Description: as §1, §2, §3

[3] = test system: MDA-MB-435S human breast cancer cells; assay: MTT assay, proliferation of MDA-MB-435S cells; format: cell-based; conditions: Homo sapiens, 72 h
Description: The experiments for evaluating the antineoplasmic activities of the compounds according to the present invention were carried out, and the compounds' antineoplasmic activities in vitro was evaluated by determining the inhibitory activities thereof against the proliferation of MDA-MB-435S human breast cancer cells.
The antineoplasmic activities were determined by using the MTT assay, which is based on the metabolic reduction of 3-(4,5-dimethylthylthiazol-2-yl)-2,5-diphenyl tetrazolium bromide (MTT). The dehydrogenases, which are related to NADP (niacinamide adenine dinucleotide phosphate, coenzyme) and present in mitochondrions of living cells, can reduce the yellow MTT to an insoluble, dark purple formazan. […] After the formazan is dissolved in DMSO, the optical density is determined on an ELISA Reader at the wavelength of 550/690 nm.
as §1

[4] = test system: Hela uterine cervix cancer cells; assay: MTT assay, Hela cells; format: cell-based; conditions: Homo sapiens, 72 h, 1000 cells per well
Description: as §1, §2, §3

Zip177 (Liver Cancer) = assay: SRB assay, Zip177; format: cell-based; conditions: 72 h, read-out: IC50 (μM) (mean ± SD)
Description: (§4) Experimental method: The antineoplasmic activities in vitro of the compounds were determined by SRB assay. The detailed procedure was as follows. The cells in the logarithmic growth phase were inoculated on a 96-well microculture plate with a suitable density (100 μl/well), and allowed to attach overnight, followed by addition of the compound at different concentrations to be treated for 72 h. For each concentration, the test was carried out in triplicate wells, and included control wells containing the aqueous medium of normal saline and a blank well containing all medium without cells for zeroing. After cultured overnight, the cells were treated with the compound at different concentrations for 72 h. After the treatment, the culture medium was removed, and the cells were fixed with 10% (wt/vol) trichloroacetic acid (100 μL/well) at 4° C. for 1 h. The cells were then washed with distilled water for 5 times, and died at room temperature, followed by addition of a SRB solution (4 mg/mL, dissolved in 1% glacial acetic acid) at 100 μL/well. The cells were incubated and stained at room temperature for 15 min, then washed with 1% glacial acetic acid for 5 times to remove the uncombined SRB, and died at room temperature. 100 μL of 10 mM Tris solution was added in each well, and the Optical Density (OD) were measured at a wavelength of 560 nm on a VERSMax ELISA Reader (Molecule Devices). The growth inhibition of the compound against tumor cells was calculated according to the following equation: Growth inhibition (%)=(ODcontrol−ODtreated)/ODcontrol×100%.
(§5) IC50 (the concentration of the sample compound that is required for 50% inhibition of cell growth) was calculated by using the Logit method based on the measurement, and each test was repeated for 3 times to calculate the mean value and standard deviation.

[5] = test system: SGC-7901 (Gastric Cancer); assay: SRB assay, SGC-7901; format: cell-based; conditions: Homo sapiens, 72 h, read-out: IC50 (μM) (mean ± SD)
Description: as §4, §5

DU145 (Prostatic Cancer) = assay: SRB assay, DU145; format: cell-based; conditions: Homo sapiens, DU-145, 72 h, read-out: IC50 (μM) (mean ± SD)
Description: as §4, §5

[6] = test system: MDA-MB-435 (Breast Cancer); assay: SRB assay, MDA-MB-435; format: cell-based; conditions: Homo sapiens, 72 h, read-out: IC50 (μM) (mean ± SD)
Description: as §4, §5

BEL-7402 (Liver Cancer) = assay: SRB assay, BEL-7402; format: cell-based; conditions: Homo sapiens, 72 h, read-out: IC50 (μM) (mean ± SD)
Description: as §4, §5

HO-8910 (Ovarian Cancer) = assay: SRB assay, HO-8910; format: cell-based; conditions: 72 h, read-out: IC50 (μM) (mean ± SD)
Description: as §4, §5

A549 (Lung Cancer) = assay: SRB assay, A549; format: cell-based; conditions: Homo sapiens, 72 h, read-out: IC50 (μM) (mean ± SD)
Description: as §4, §5

HCT-116 (Colon Cancer) = assay: SRB assay, HCT-116; format: cell-based; conditions: Homo sapiens, 72 h, read-out: IC50 (μM) (mean ± SD)
Description: as §4, §5

[7] = test system: HPAF-II (Pancreatic Cancer); assay: SRB assay, HPAF-II; format: cell-based; conditions: Homo sapiens, 72 h, read-out: IC50 (μM) (mean ± SD)
Description: as §4, §5

HMEC (Others) = assay: SRB assay, HMEC; format: cell-based; conditions: Homo sapiens, 72 h, read-out: IC50 (μM) (mean ± SD)
Description: as §4, §5

SMMC-7721 (Liver Cancer) = assay: SRB assay, SMMC-7721; format: cell-based; conditions: Homo sapiens, 72 h, read-out: IC50 (μM) (mean ± SD)
Description: as §4, §5

HepG2 (Liver Cancer) = assay: SRB assay, HepG2; format: cell-based; conditions: Homo sapiens, 72 h, read-out: IC50 (μM) (mean ± SD)
Description: as §4, §5

7404 (Liver Cancer) = assay: SRB assay, 7404; format: cell-based; conditions: 72 h, read-out: IC50 (μM) (mean ± SD)
Description: as §4, §5

[8] = clinical study entered 2001; cited from earlier work
[9] = background; cited from earlier work
[10] = test system: heterograft of MDA-MB-4355 human breast cancer cells; conditions: background; cited from earlier work
human tumor cells = conditions: background; cited from earlier work
[11] = note: MDA-MB-435S, read-out: IC50 (MDA-MB-435)
[12] = read-out: Cell Survival Rate IC50

SMILES | IC50 [1] [nM] | IC50 [2] [nM] | IC50 [3, 11] [nM] | IC50 [4] [nM] | IC50 (Zip177 (Liver Cancer)) [µM] | IC50 [5] [µM] | IC50 (DU145 (Prostatic Cancer)) [µM] | IC50 [6] [µM] | IC50 (BEL-7402 (Liver Cancer)) [µM] | IC50 (HO-8910 (Ovarian Cancer)) [µM] | IC50 (A549 (Lung Cancer)) [µM] | IC50 (HCT-116 (Colon Cancer)) [µM] | IC50 [7] [µM] | IC50 (SMMC-7721 (Liver Cancer)) [µM] | IC50 (HepG2 (Liver Cancer)) [µM] | IC50 (7404 (Liver Cancer)) [µM] | IC50 [3, 12] [nM] | IC50 (HMEC (Others)) [µM] | further results
CO[C@@H](C(=O)N[C@@H](C)C(=O)NCCOC1CCCCC1)[C@H](O)[C@@H](O)[C@H](O)/C=C/C(C)(C)C [Compound L458e] | 594 ± 69 | 1510 ± 283 | 2830 ± 695 | 822 ± 175 | – | – | – | – | – | – | – | – | – | – | – | – | 2190 | – | –
CO[C@@H](C(=O)N[C@H]1CC[C@@H](OC(=O)C2CCCCC2)CNC1=O)[C@H](O)[C@@H](O)[C@H](O)/C=C/C(C)(C)C [LAF389, reference compound] | – | – | – | – | 2.79 ± 0.15 | 4.96 ± 0.4 | 0.42 ± 0.21 | 0.29 ± 0.02 | 0.56 ± 0.4 | > 20 | 0.05 ± 0.01 | 0.63 ± 0.18 | 3.23 ± 2.13 | 1.25 ± 0.76 | 0.21 ± 0.09 | > 20 | 610 | 0.83 ± 0.45 | side effects in clinical study [8]: side effects such as taste disturbance, blurred vision; therapeutic effects in clinical study [8]: did not possess the foreseen therapeutic effects; solubility [9]: good solubility; growth of heterograft in vivo [10]: comparable to Bengamide B; activities against human tumor cells in vitro (human tumor cells): comparable to Bengamide B
CCOC(=O)CNC(=O)[C@H](C)NC(=O)[C@H](OC)[C@H](O)[C@@H](O)[C@H](O)/C=C/C(C)(C)C [Compound L418] | 1550 ± 241 | 1500 ± 215 | 5170 ± 941 | 572 ± 171 | – | – | – | – | – | – | – | – | – | – | – | – | 5170 | – | –
CCCCCCCCCCCCCC(=O)O[C@H]1CC[C@H](NC(=O)[C@H](OC)[C@H](O)[C@@H](O)[C@H](O)/C=C/C(C)C)C(=O)N(C)C1 [bengamide B] | – | – | – | – | – | – | – | – | – | – | – | – | – | – | – | – | – | – | solubility [9]: poor solubility; growth of heterograft in vivo [10]: remarkably depress the growth; activities against human tumor cells in vitro (human tumor cells): nanomolar level

More lines, in order of falling IC50 [1], values ahead:

IC50 [1] [nM] | IC50 [2] [nM] | IC50 [3, 11] [nM] | IC50 [4] [nM] | IC50 (Zip177 (Liver Cancer)) [µM] | IC50 [5] [µM] | IC50 (DU145 (Prostatic Cancer)) [µM] | IC50 [6] [µM] | IC50 (BEL-7402 (Liver Cancer)) [µM] | IC50 (HO-8910 (Ovarian Cancer)) [µM] | IC50 (A549 (Lung Cancer)) [µM] | IC50 (HCT-116 (Colon Cancer)) [µM] | IC50 [7] [µM] | IC50 (SMMC-7721 (Liver Cancer)) [µM] | IC50 (HepG2 (Liver Cancer)) [µM] | IC50 (7404 (Liver Cancer)) [µM] | SMILES | IC50 [3, 12] [nM] | IC50 (HMEC (Others)) [µM] | further results
261 ± 65 | 110 ± 13 | 510 ± 124 | – | – | – | – | – | – | – | – | – | – | – | – | – | COc1cccc2c1C(=O)c1c(O)c3c(c(O)c1C2=O)C[C@@](O)(C(=O)CO)C[C@@H]3O[C@H]1C[C@H](N)[C@H](O)[C@H](C)O1 [adriamycin, reference compound] | 510 | – | –
219 ± 30 | 130 ± 15 | 541 ± 205 | 188 ± 42 | – | – | – | – | – | – | – | – | – | – | – | – | CO[C@@H](C(=O)N[C@@H](C)C(=O)NCCOC(=O)C1CC=CCC1)[C@H](O)[C@@H](O)[C@H](O)/C=C/C(C)(C)C (stereo partly drawn) [Compound L484] | 540 | – | –
98 ± 18 | 51 ± 5 | 201 ± 47 | 24 ± 3 | 0.26 ± 0.05 | 1.97 ± 0.86 | 0.14 ± 0.01 | 0.14 ± 0.13 | 0.28 ± 0.01 | > 20 | 0.08 ± 0.02 | 0.58 ± 0.25 | 2.01 ± 1.06 | 0.41 ± 0.15 | 1.11 ± 0.49 | > 20 | CCOC(=O)C(COC(=O)C1CCCCC1)NC(=O)[C@H](C)NC(=O)[C@H](OC)[C@H](O)[C@@H](O)[C@H](O)/C=C/C(C)(C)C (stereo partly drawn) [Compound L558a] | 200 | 0.25 ± 0.14 | –
76 ± 8 | 71 ± 7 | 398 ± 128 | 158 ± 32 | 0.4 ± 0.21 | 2.21 ± 0.67 | 0.29 ± 0.06 | 0.08 ± 0.01 | 0.33 ± 0.21 | > 20 | 0.03 ± 0.01 | 0.35 ± 0.11 | 1.57 ± 0.35 | 0.65 ± 0.26 | 0.56 ± 0.08 | > 20 | CO[C@@H](C(=O)N[C@@H](C)C(=O)NCCOC(=O)CCc1ccccc1)[C@H](O)[C@@H](O)[C@H](O)/C=C/C(C)(C)C [Compound L508] | – | 0.21 ± 0.02 | –
75 ± 14 | 97 ± 13 | 284 ± 100 | 165 ± 30 | – | – | – | – | – | – | – | – | – | – | – | – | CO[C@@H](C(=O)N[C@@H](C)C(=O)NCCOC(=O)C1CCCCC1)[C@H](O)[C@@H](O)[C@H](O)/C=C/C(C)(C)C [Compound L486d] | 280 | – | –
